{"source": "paper PMC11500415", "about": "“Chemical inhibition of stomatal differentiation by perturbation of the master-regulatory bHLH heterodimer via an ACT-Like domain” (Nature Communications, 2024)", "format_in_all_cases": "cell-based", "key": {"SCRM-MUTE heterodimer": {"biological_target": "T1, SCRM-MUTE heterodimer (Arabidopsis thaliana, UniProt Q9M8K6)", "T1 construct": "expressed in transfected cells; host or cells: yeast strain AH109", "T1 sequence (Q9M8K6 1-202)": "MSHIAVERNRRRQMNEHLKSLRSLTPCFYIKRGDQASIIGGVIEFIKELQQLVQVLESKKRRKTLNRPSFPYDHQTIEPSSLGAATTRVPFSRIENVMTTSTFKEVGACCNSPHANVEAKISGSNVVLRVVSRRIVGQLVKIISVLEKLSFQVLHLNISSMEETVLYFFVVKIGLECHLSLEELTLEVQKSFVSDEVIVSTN", "test": "Ratiometric BiFC in N. benthamiana leaves", "conditions": "100 μM, 1 day", "text": "(§1) For ratiometric BiFC assays, the cDNAs of SPCH, MUTE, and FAMA were cloned into the 35S CaMV promoter-driven destination vector pSPYNE, which contains the N terminus of the EYFP protein (nYFP-174 amino acids), while the cDNA of SCRM and SCRM2 was inserted into pSPYCE, which contains the C terminus of the EYFP protein (cYFP-64 amino acids) (see Supplementary Table 5 for detailed information of the constructs). The constructs were then transformed into Agrobacterium tumefaciens strain GV3101. The Agrobacterium was resuspended in infiltration buffer (10 mM MgCl2, 10 mM 2-(N-morpholino)ethanesulfonic acid [pH 5.6], and 150 µM acetosyringone). Bacterial culture densities were adjusted to a final optical density (OD600) of 1.0, and the cell suspensions were incubated at room temperature for 4 hours prior to infiltration. Equal volumes of cultures carrying the corresponding complementary pair of BiFC constructs (YFPn and YFPc), along with CaMV35S::Histone H2B-mScarlet-I3 and the silencing suppressor plasmid p19 (a gift from Dr. Sir David Baulcombe) were mixed and then co-infiltrated into 4-week-old N. benthamiana leaves. The infiltrated N. benthamiana leaves were incubated at 25 °C for 2 days. Subsequently, leaf discs were cut out and cultured in mock or in liquid 1/2 MS media in mock (DMSO) or 100 µM Stomidazolone for 1 day. Confocal imaging of N. benthamiana leaves was performed using a Leica SP8 confocal microscope using a 20X objective lens (Leica Microsystems), simultaneously capturing YFP (excitation at 518 nm and emission at 530 nm) and mScarlet-I3 (excitation at 569 nm and emission at 600 nm) differential interference contrast channels."}, "SCRM2-FAMA heterodimer": {"biological_target": "T2, SCRM2-FAMA heterodimer (Arabidopsis thaliana, UniProt Q56YJ8)", "T2 construct": "heterodimerization of SCRM with full-length SPCH, MUTE, or FAMA in the context of the plant cells; we performed rBiFC assays using full-length SCRM2; nYFP (N terminus of EYFP, 174 amino acids); cYFP (C terminus of EYFP, 64 amino acids); expressed in transfected cells; host or cells: Nicotiana benthamiana leaves (Agrobacterium infiltration)", "T2 sequence (Q56YJ8 whole entry, one chain of several)": "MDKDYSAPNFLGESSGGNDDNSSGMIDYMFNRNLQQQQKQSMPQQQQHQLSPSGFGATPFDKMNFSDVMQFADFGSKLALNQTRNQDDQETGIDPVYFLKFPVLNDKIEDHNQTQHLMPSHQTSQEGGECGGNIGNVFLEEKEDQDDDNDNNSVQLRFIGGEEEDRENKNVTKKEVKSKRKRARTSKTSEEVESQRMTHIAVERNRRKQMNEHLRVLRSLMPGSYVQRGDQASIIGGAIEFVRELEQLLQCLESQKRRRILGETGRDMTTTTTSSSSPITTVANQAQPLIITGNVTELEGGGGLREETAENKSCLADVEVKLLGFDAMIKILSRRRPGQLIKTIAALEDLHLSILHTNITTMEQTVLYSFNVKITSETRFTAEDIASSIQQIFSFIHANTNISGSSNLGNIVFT", "test": "Ratiometric BiFC in N. benthamiana leaves", "conditions": "100 µM", "text": "as §1"}, "SCRM2-SPCH heterodimer": {"biological_target": "T3, SCRM2-SPCH heterodimer (Arabidopsis thaliana, UniProt Q700C7)", "T3 construct": "heterodimerization of SCRM with full-length SPCH, MUTE, or FAMA in the context of the plant cells; we performed rBiFC assays using full-length SCRM2; nYFP (N terminus of EYFP, 174 amino acids); cYFP (C terminus of EYFP, 64 amino acids); expressed in transfected cells; host or cells: Nicotiana benthamiana leaves (Agrobacterium infiltration)", "test": "Ratiometric BiFC in N. benthamiana leaves", "conditions": "100 µM", "text": "as §1"}, "SCRM-SPCH heterodimer": {"biological_target": "T4, SCRM-SPCH heterodimer (Arabidopsis thaliana, UniProt Q700C7)", "T4 construct": "heterodimerization of SCRM with full-length SPCH, MUTE, or FAMA in the context of the plant cells; combinations of split YFP constructs fused to the full-length stomatal bHLH proteins; nYFP (N terminus of EYFP, 174 amino acids); cYFP (C terminus of EYFP, 64 amino acids); expressed in transfected cells; host or cells: Nicotiana benthamiana leaves (Agrobacterium infiltration)", "T4 sequence (Q700C7 1-364)": "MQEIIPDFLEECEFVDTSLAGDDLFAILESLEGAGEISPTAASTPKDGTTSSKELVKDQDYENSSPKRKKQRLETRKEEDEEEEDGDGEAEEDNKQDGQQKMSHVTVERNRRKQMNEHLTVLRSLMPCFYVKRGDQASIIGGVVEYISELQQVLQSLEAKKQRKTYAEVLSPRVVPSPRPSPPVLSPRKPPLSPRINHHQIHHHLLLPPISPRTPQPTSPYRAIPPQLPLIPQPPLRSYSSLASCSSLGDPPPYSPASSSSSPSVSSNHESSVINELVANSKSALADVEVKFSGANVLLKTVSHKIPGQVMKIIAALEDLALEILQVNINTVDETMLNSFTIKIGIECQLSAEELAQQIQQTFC", "conditions": "100 μM, 1 day", "text": "as §1"}}, "data": [{"compound": "O=C1C(c2ccccc2)=NC(NS(=O)(=O)c2ccccc2)(c2ccccc2)N1S(=O)(=O)c1ccccc1", "note": "(stereo not shown) [Stomidazolone]", "values": [{"measurement": "effect on heterodimerization, YFP/RFP signal ratio (in words)", "setting": "SCRM-MUTE heterodimer", "result": "severely perturbs"}, {"measurement": "effect on heterodimerization (in words)", "setting": "SCRM2-FAMA heterodimer", "result": "abolished"}, {"measurement": "effect on heterodimerization (in words)", "setting": "SCRM2-SPCH heterodimer", "result": "abolished"}, {"measurement": "effect on heterodimerization, YFP/RFP signal ratio (in words)", "setting": "SCRM-SPCH heterodimer", "result": "weakly affecting"}]}]}
